From patent US20250170132A1, “SALTS AND POLYMORPHIC FORMS OF MENIN INHIBITORS AND PHARMACEUTICAL COMPOSITIONS THEREOF” (Syndax Pharmaceuticals, Inc., priority 2023, published 2025)

Key:
Assay type in all cases: physicochemical
[1] = Polymorph screen: slurry at RT
Procedure: (§1) X-ray powder diffraction (XRPD) • Instrument: Panalytical Empyrean • Parameters: X-Ray tube Cu (Kα radiation); Power: 45 kV×40 mA • Scanning range: 2 to 40 2θ (degree) • Step size: 0.01 degree • Scanning speed: 6.33 degree (20) per minute Thermogravimetric analysis (TGA) • Instrument: TA Instruments Discovery TGA • Parameters: Ramp 10° C. per minute, 25 to 300° C., 50 mL/min N2 sweep Differential scanning calorimetry (DSC) • Instrument: TA Instruments Discovery DSC • Parameters: Ramp 10° C. per minute, up to 300° C. Polarized light microscopy (PLM) • Instrument: Nikon Eclipse Ci POL • Camera: Nikon DS-Fi3 • Software: Nikon NIS Elements
Slurry at RT—About 40 mg API was suspended and stirred in different solvents in 4 mL vials at RT. The solids in the slurry were characterized by XRPD after 5-7 days (Table 33).

[2] = Polymorph screen: slow evaporation; settings: Diethylamine, 50° C.
Procedure: as §1
The vials were covered with paraffin film with 3-5 holes and placed at specified temperature for evaporation. The obtained solids were characterized by XRPD (Table 35).

[3] = Polymorph screen: temperature cycling; settings: temperature cycling 50→40→30→20→5 °C, total 2 cycles, each step 4 h, isolated at RT, XRPD
Procedure: as §1
The obtained solids were characterized by XRPD (Table 37).

[4] = Solution stability studies at accelerated conditions (counterion-related degradation; Impurity A formation vs temperature, pH, time)
Text: FIG. 32 depicts Impurity A formation as a function of temperature, pH, and time in solution.
(§2) Compound A monocitrate monohydrate has at least two advantageously and unexpected characteristics. Both alone and in comparison, with Compound A salts known in the art (e.g. Compound A fumarate salts). […] Second, in the manufacturing process, Compound A fumarate requires a separate slurrying step which results in a solvate with an organic solvent. Compound A monocitrate monohydrate salt is isolated directly from ethanol:water, no slurrying step is required. […] Additionally, the Compound A monocitrate forms a monohydrate instead of a solvate with one or more organic molecules.

[5] = Approximate solubility estimation in 24 solvents; settings: thermodynamic from solid
Procedure: About 10 mg of Compound A monocitrate monohydrate was weighed into a 4.0 mL vial and 25 μL of solvent was added at RT. The solution was shaken and stirred. If no clear solution was obtained, another 25 μL was added and this was repeated until 4.0 mL solvent is added.

[6] = Polymorph screen: liquid vapor diffusion
Procedure: as §1
The obtained solids were characterized by XRPD after 7-10 days (Table 32).

[7] = Solution stability studies at accelerated conditions, counterion adduct (Impurity A); settings: solution stability at accelerated conditions
Text: as §2, with “characteristics.” for “characteristics. Both alone and in comparison, with Compound A salts known in the art (e.g. Compound A fumarate salts).”
Although this degradation pathway is more accelerated in solution it was also observed in the solid API. Formation of Impurity A was the reason why Compound A sesquifumarate API and drug product were stored at refrigerated temperatures.

[8] = Polymorph screen: polymer-induced crystallization
Procedure: as §1
The obtained solids were characterized by XRPD after 7-10 days (Table 36).

[9] = Aqueous solubility of Compound A salts
Procedure: Solubility of Compound A citrate was determined in 3 different types of matrices: unbuffered water, citrate-buffered solutions from pH 3 to 6, and formulations consisting of citrate, advantame, methylparaben sodium, potassium sorbate, and sodium chloride at pH ranging from 3 to 6. Solubility in unbuffered water at ambient temperature was 38.5 mg/mL.
The target pH was reassessed when the F3 formulation was developed. Compound A citrate solubility studies were performed initially in simple buffered solutions to assess solubility trends as a function of pH. […] The target concentration of Compound A was therefore changed to 40 mg/mL as a compromise between drug substance and preservatives dissolution rate and stability.

CCN(C(=O)c1cc(F)ccc1Oc1cncnc1N1CC2(CCN(C[C@H]3CC[C@H](NS(=O)(=O)CC)CC3)CC2)C1)C(C)C [Compound A monocitrate monohydrate]
Crystal Form ([1]; Acetone): Form A | Crystal Form ([1]; Benzene): Form A | Crystal Form ([1]; CHCl3): Form A | Crystal Form ([1]; CPME): Form A | Crystal Form ([1]; DMA:Benzene 1:9): Form A | Crystal Form ([1]; DMA:CHCl3 1:9): Form A | Crystal Form ([1]; DMA:EtOH 1:9): Form A | Crystal Form ([1]; DMF:EtOAc 1:9): Form A | Crystal Form ([1]; DMSO (SL→Gel)): Amorphous | Crystal Form ([1]; DMSO:IPAc 1:9): Form A | Crystal Form ([1]; Diethylamine:EtOH 3:7): FB-2 | Crystal Form ([1]; IPA): Form A | Crystal Form ([1]; MIBK): Form A | Crystal Form ([1]; MeOH:MeCN 9:1): Form A | Crystal Form ([1]; NMP:IPA 1:9): Form A | Crystal Form ([1]; THF:H2O (aw = 0.2)): Form A | Crystal Form ([1]; THF:H2O (aw = 0.4)): Form A | Crystal Form ([1]; THF:H2O (aw = 0.6)): Form A | Crystal Form ([1]; THF:H2O (aw = 0.8)): Form A | Crystal Form ([1]; Toluene): Form A | Crystal Form [2]: FB-2 | Crystal Form ([3]; 1,4-dioxane:H2O 9:1): Form A* | Crystal Form ([3]; 2-MeTHF:DMF 9:1): Form A* | Crystal Form ([3]; DMSO:Toluene 1:9): Form A* | Crystal Form ([3]; NMP:nPA 1:9): Form A* | reaction of counterion with the pyrimidine ring of Compound A (degradation) [4]: does not react with the pyrimidine ring of Compound A | solubility ([5]; aqueous with cosolvent or surfactant or cyclodextrin, 1,4-dioxane/water (7/3), heated for few seconds using heat gun): 84 to 105 mg/mL | solubility ([5]; aqueous with cosolvent or surfactant or cyclodextrin, 1-PrOH/water (1/1), heated for few seconds using heat gun): 161 to 242 mg/mL | solubility ([5]; aqueous with cosolvent or surfactant or cyclodextrin, Acetone/H2O (9:1 v/v), RT): 15 to 17.5 mg/mL | solubility ([5]; aqueous with cosolvent or surfactant or cyclodextrin, MeOH/water (7/3), heated for few seconds using heat gun): 93 to 186 mg/mL | solubility ([5]; aqueous with cosolvent or surfactant or cyclodextrin, THF/water (1/1), heated for few seconds using heat gun): 141 to 212 mg/mL | solubility ([5]; organic solvent or mixture, 2-MeTHF, RT): < 2.9 mg/mL | solubility ([5]; organic solvent or mixture, Anisole, RT): < 3 mg/mL | solubility ([5]; organic solvent or mixture, Benzene, RT): < 2.9 mg/mL | solubility ([5]; organic solvent or mixture, CPME, RT): < 2.1 mg/mL | solubility ([5]; organic solvent or mixture, Chloroform, RT): < 2.3 mg/mL | solubility ([5]; organic solvent or mixture, Cyclohexane, RT): < 2.3 mg/mL | solubility ([5]; organic solvent or mixture, DMA, RT): 81 to 162 mg/mL | solubility ([5]; organic solvent or mixture, DMF, RT): 80 to 160 mg/mL | solubility ([5]; organic solvent or mixture, Diethylamine, RT): 170 to 340 mg/mL | solubility ([5]; organic solvent or mixture, Diisopropyl ether, RT): < 2.3 mg/mL | solubility ([5]; organic solvent or mixture, Dimethoxyethane (DME), RT): < 2.4 mg/mL | solubility ([5]; organic solvent or mixture, EtOAc, RT): < 2.3 mg/mL | solubility ([5]; organic solvent or mixture, Heptane, RT): < 2.8 mg/mL | solubility ([5]; organic solvent or mixture, IPA, RT): < 2.8 mg/mL | solubility ([5]; organic solvent or mixture, MEK, RT): < 2.4 mg/mL | solubility ([5]; organic solvent or mixture, MTBE, RT): < 2.8 mg/mL | solubility ([5]; organic solvent or mixture, NMP, RT): 120 to 240 mg/mL | solubility ([5]; organic solvent or mixture, Propylene glycol, heated for few seconds using heat gun): 22.2 to 27.8 mg/mL | solubility ([5]; organic solvent or mixture, THF, RT): < 2 mg/mL | Crystal Form ([6]; solvent DCM, antisolvent Acetone): Form A | Crystal Form ([6]; solvent DCM, antisolvent MTBE): Form A | Crystal Form ([6]; solvent NMP, antisolvent MTBE): Form A | Degradation by reaction of counterion with the pyrimidine ring [7]: absence of this type of degradation | Crystal Form ([8]; polymer Brij, NMP:H2O 1:9, 40° C.): Amorphous | Crystal Form ([8]; polymer PVC, DMF:DCM 1:9, RT): Form A | Crystal Form ([8]; polymer PVP, DMA:H2O 1:9, 40° C.): Form A | Crystal Form ([8]; polymer PVP, NMP:H2O 1:9, 40° C.): Form A | Effect of solution pH on solubility ([9]; citrate-buffered solutions and formulations, pH 3 to 6): maxima at both pH 3 and 6 | USP solubility definition ([9]; physiological pH range from 1.2 through 6.8): soluble | Solubility trend as a function of pH ([9]; simple buffered solutions, pH 3.0 to 6.0): highest at pH 3.0 | solubility ([9]; unbuffered water, ambient temperature, read-out: Solubility): 38.5 mg/mL
